From patent publication US20230203059A1, “MACROCYCLIC JAK INHIBITOR AND USES THEREOF” (Biopolar Hongye (Guangdong) Pharmaceutical Co. Ltd., priority 2020, published 2023)

Tests used:
Type in all cases: biochemical
[1] = target: T1, JAK3 (Homo sapiens, UniProt P52333); experiment: JAK kinase activity, homogeneous time-resolved fluorescence (JAK3 reaction system); details: ATP 2 μM, JAK3 protein 0.04 ng/μL; read-out: JAK 3 activity
T1 sequence (P52333 1-1124): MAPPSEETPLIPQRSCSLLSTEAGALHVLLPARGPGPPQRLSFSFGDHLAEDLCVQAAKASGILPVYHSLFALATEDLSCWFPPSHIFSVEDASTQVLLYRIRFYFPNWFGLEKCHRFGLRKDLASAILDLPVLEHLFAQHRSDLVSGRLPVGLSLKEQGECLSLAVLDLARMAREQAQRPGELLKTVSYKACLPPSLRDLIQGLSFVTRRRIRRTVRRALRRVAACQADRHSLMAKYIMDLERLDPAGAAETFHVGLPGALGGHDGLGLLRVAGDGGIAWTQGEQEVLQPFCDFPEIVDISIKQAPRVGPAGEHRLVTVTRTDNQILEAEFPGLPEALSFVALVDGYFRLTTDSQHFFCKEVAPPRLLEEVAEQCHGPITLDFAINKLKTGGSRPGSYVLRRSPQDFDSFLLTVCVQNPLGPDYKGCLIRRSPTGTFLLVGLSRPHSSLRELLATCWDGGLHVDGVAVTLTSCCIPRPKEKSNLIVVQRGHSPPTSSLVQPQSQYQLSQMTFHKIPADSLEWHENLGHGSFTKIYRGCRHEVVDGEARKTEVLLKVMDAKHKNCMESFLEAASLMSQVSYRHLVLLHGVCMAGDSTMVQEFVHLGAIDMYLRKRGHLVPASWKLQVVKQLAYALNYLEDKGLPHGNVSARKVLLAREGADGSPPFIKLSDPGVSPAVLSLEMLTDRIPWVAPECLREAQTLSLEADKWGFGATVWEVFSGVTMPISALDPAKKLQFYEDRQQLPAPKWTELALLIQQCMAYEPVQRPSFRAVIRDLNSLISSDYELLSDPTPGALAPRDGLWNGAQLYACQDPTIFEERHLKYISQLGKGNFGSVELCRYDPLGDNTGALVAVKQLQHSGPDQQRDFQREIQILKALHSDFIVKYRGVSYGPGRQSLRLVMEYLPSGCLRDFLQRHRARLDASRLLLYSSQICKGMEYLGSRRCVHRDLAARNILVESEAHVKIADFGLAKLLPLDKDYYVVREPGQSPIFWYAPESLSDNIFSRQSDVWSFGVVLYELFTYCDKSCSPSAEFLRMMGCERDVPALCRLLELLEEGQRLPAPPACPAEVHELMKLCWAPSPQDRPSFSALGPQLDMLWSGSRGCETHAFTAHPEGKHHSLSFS

[2] = target: JAK2 (Homo sapiens, UniProt O60674); experiment: JAK kinase activity, homogeneous time-resolved fluorescence (JAK2 reaction system); details: ATP 2 μM, JAK2 protein 0.01 ng/μL
Sequence of JAK2 (O60674 whole entry): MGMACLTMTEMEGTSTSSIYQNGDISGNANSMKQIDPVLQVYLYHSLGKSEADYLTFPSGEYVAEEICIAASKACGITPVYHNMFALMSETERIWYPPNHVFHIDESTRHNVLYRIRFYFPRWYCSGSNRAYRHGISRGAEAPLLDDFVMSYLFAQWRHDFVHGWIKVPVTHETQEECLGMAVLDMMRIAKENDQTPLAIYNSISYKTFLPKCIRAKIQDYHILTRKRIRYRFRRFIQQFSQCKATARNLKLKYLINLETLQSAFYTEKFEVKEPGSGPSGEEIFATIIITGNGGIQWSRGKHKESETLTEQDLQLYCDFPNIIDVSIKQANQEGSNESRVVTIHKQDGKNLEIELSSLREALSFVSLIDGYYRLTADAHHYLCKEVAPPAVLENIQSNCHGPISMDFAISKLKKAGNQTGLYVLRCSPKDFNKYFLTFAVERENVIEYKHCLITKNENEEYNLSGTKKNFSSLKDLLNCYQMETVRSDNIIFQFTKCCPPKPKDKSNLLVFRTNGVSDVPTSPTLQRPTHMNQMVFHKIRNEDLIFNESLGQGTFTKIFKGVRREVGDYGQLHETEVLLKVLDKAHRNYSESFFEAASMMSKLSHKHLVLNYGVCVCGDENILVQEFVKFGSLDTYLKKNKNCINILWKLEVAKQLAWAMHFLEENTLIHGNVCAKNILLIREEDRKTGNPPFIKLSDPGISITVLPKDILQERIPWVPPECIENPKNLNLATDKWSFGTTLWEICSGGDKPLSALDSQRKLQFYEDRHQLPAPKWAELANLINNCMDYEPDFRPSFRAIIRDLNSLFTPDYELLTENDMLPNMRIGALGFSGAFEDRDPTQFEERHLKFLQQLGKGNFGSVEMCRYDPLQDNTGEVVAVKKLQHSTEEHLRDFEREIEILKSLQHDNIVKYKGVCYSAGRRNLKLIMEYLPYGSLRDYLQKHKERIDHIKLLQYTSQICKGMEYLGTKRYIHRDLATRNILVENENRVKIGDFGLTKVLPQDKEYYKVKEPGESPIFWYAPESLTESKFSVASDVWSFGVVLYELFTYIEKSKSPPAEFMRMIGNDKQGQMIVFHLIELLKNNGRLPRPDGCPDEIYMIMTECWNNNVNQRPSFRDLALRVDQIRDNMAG
Summary of the method: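 IC50 derived by Hill-equation fit of the 665/615 nm time-resolved fluorescence ratio after EDTA-containing detection mix with anti-phosphosubstrate antibody. Preceding 1 h reaction contained 2 μM ATP, 0.01 ng/μL JAK2, substrate, 50 mM Hepes pH 7.0, 5 mM MgCl2, 1 mM DTT.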

[3] = target: TYK2 (Homo sapiens, UniProt P29597); experiment: JAK kinase activity, homogeneous time-resolved fluorescence (TYK2 reaction system); details: ATP 2 μM, TYK2 protein 0.2 ng/μL; read-out: TYK 2 activity
Sequence of TYK2 (P29597 whole entry): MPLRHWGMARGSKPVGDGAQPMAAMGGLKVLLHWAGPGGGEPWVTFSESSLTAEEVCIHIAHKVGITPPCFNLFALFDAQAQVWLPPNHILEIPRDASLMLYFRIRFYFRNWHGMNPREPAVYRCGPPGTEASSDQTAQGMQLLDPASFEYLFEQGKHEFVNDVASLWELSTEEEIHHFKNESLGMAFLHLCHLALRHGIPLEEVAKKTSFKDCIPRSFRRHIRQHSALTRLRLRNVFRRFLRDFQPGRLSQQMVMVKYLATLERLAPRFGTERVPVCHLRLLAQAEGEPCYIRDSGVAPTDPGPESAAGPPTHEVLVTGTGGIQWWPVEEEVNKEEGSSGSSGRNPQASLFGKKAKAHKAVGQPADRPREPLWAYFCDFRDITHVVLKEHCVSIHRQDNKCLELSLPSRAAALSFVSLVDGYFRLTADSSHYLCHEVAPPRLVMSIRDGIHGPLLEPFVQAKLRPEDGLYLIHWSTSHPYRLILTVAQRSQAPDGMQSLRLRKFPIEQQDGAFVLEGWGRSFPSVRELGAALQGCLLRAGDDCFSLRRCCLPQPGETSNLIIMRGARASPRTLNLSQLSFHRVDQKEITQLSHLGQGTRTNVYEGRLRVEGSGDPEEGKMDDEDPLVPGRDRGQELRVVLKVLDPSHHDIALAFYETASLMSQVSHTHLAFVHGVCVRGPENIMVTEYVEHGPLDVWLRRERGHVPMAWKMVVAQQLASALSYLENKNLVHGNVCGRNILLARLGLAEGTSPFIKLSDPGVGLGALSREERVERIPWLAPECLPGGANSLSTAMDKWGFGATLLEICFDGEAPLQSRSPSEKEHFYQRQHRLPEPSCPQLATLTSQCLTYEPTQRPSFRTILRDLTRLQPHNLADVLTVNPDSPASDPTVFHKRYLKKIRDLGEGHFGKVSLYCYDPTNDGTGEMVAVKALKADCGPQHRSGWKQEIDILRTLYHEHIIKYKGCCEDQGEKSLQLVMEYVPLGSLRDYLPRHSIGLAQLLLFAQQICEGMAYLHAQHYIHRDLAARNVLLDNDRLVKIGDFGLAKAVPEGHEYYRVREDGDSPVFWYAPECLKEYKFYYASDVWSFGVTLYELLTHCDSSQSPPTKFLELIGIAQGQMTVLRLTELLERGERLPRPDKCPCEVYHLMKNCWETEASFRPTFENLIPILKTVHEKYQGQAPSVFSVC
Summary of the method: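 Activity read as the 665 nm/615 nm ratio after adding EDTA-containing detection mix with anti-phospho-substrate antibody and XL-615. Beforehand, 0.2 ng/μL TYK2, 2 μM ATP, substrate and compound reacted 1 h in pH 7.0 Hepes buffer with MgCl2 and DTT. IC50 fitted with Hill-slope equation.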

[4] = target: JAK1 (Homo sapiens, UniProt P23458); experiment: JAK kinase activity, homogeneous time-resolved fluorescence (JAK1 reaction system); details: ATP 2 μM, JAK1 protein 0.2 ng/μL; read-out: JAK 1 activity
Sequence of JAK1 (P23458 whole entry): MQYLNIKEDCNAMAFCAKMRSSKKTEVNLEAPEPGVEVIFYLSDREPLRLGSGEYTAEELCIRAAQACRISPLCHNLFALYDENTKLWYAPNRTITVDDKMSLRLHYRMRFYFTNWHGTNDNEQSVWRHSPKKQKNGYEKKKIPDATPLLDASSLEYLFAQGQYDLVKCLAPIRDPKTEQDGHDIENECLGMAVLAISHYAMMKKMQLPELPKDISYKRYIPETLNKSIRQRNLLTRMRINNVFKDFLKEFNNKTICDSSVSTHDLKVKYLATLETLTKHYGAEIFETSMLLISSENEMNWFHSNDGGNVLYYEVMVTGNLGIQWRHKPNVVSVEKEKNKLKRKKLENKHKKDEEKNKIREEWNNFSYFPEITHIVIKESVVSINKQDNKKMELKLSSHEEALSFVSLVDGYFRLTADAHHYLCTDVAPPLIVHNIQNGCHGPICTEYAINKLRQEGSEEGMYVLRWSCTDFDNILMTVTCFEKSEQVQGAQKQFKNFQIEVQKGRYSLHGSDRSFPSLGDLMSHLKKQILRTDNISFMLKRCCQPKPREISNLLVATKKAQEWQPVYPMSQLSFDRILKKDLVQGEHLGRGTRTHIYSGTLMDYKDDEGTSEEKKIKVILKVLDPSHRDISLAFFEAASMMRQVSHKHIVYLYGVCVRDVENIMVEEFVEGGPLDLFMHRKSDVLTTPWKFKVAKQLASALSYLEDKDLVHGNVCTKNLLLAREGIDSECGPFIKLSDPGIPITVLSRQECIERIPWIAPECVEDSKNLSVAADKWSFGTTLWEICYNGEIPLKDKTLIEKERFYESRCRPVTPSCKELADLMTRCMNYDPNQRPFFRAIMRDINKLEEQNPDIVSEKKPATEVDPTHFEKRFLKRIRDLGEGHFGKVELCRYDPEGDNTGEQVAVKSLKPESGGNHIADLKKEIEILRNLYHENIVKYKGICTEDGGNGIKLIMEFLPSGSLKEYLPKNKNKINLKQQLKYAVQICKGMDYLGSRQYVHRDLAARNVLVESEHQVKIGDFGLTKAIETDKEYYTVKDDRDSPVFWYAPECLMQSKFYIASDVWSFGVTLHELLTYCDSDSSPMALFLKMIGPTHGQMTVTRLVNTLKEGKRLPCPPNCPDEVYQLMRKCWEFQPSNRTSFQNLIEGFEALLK
Summary of the method: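 HTRF assay: JAK1 (0.2 ng/μL) with 2 μM ATP and substrate in 50 mM Hepes pH 7.0, 5 mM MgCl2, 1 mM DTT, 1 h. Phospho-substrate antibody/XL-615 detection with EDTA; 665/615 nm ratio, excitation 320 nm. IC50 from Hill-type fit against no-enzyme and no-compound controls.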

SMILES | IC50 [1] | IC50 [2] | IC50 [3] | IC50 [4]
COc1cc(F)cc(C#N)c1COc1ccc2cc1COCCCCNC(=O)c1ccc(c(N)c1)-c1ccnc(n1)N2 [Example 194, 2-(((1^2-amino-12-oxo-6-oxo-3,11-diaza-2(4,2)-pyrimidina-1(1,4),4(1,3)-dibenzenacyclododecaphan-4^4-yl)oxy)methyl)-5-fluoro-3-methoxy-benzonitrile] | 11 to 100 nM | 101 to 1000 nM | > 10000 nM | 1000 to 10000 nM
CN(C)c1cc2ccc1-c1ccnc(n1)Nc1ccc(OC3CC3)c(c1)COCCCCNC2=O [Example 83, 4^4-cyclopropxy-1^2-dimethylamino-6-oxa-3,11-diaza-2(4,2)-pyrimidina-1(1,4),4(1,3)-dibenzenacyclododeca-phan-12-one] | > 10000 nM | 1000 to 10000 nM | > 10000 nM | 1000 to 10000 nM
O=C1NCCCCOCc2cc(ccc2OCC2Cc3ccccc3O2)Nc2nccc(n2)-c2ccc1cc2[N+](=O)[O-] (stereo not shown) [Example 154, 4^4-((2,3-dihydroxybenzofuran-2-yl)methoxy)-1^2-nitro-6-oxa-3,11-diaza-2(4,2)-pyrimidina-1(1,4),4(1,3)-dibenzenacyclododecaphan-12-one] | 101 to 1000 nM | 1000 to 10000 nM | > 10000 nM | 1000 to 10000 nM
O=C1NCCCCOCc2cc(ccc2O)Nc2nccc(n2)-c2ccc1cc2[N+](=O)[O-] [Example 81, 4^4-hydroxy-1-nitro-6-oxa-3,11-diaza-2(4,2)-pyrimidina-1(1,4),4(1,3)-di-benzenacyclododecaphan-12-one] | 101 to 1000 nM | 1000 to 10000 nM | > 10000 nM | 1000 to 10000 nM
Nc1cc2ccc1-c1ccnc(n1)Nc1ccc(F)c(c1)COc1ccc(cc1)NC2=O [Example 91, 1^2-amino-4^4-fluoro-6-oxa-3,8-diaza-2(4,2)-pyrimidina-1,7(1,4),4(1,3)-tri-benzenacyclononaphane-9-one] | 101 to 1000 nM | > 10000 nM | > 10000 nM | > 10000 nM
O=C1NCCCCOCc2cc(ccc2OCC2CCC(F)(F)C2)Nc2nccc(n2)-c2ccc1cc2[N+](=O)[O-] (stereo not shown) [Example 120, 4^4-((3,3-difluorocyclopentyl)meth-oxy)-1^2-nitro-6-oxa-3,11-diaza-2(4,2)-pyrimidina-1(1,4),4(1,3)-di-benzenacyclododecaphan-12-one] | 101 to 1000 nM | 1000 to 10000 nM | > 10000 nM | 1000 to 10000 nM
O=C1NCCCCOCc2cc(ccc2OC2COC2)Nc2nccc(n2)-c2ccc1cc2[N+](=O)[O-] [Example 72, 1^2-nitro-4^4-(oxetan-3-oxy)-6-oxa-3,11-diaza-2(4,2)-pyrimidina-1(1,4),4(1,3)-dibenzenacyclododecaphan-12-one] | 101 to 1000 nM | 1000 to 10000 nM | > 10000 nM | 1000 to 10000 nM
CC1CCNC(=O)c2ccc(c(N)c2)-c2ccnc(n2)Nc2ccc(OCC3CCOC3)c(c2)COC1 (stereo not shown) [Example 136, 1^2-amino-8-methyl-4^4-((tetrahydro-furan-3-yl)methoxy)-6-oxa-3,11-diaza-2(4,2)-pyrimidina-1(1,4),4(1,3)-dibenzenacyclododecaphan-12-one] | < 10 nM | 101 to 1000 nM | 1000 to 10000 nM | 1000 to 10000 nM
Nc1cc2ccc1-c1ccnc(n1)Nc1cc(F)c(OC3CCOCC3)c(c1)COCCCCNC2=O [Example 84, 1^2-amino-4^5-fluoro-4^4-((tetrahydro-2H-pyran-4-yl)oxy)-6-oxa-3,11-dia-za-2(4,2)-pyrimidina-1(1,4),4(1,3)-dibenzenacyclododecaphan-12-one] | 11 to 100 nM | 101 to 1000 nM | 1000 to 10000 nM | 101 to 1000 nM
Nc1cc2ccc1-c1ccnc(n1)Nc1cc(cc(N3CCOCC3)c1)COCCCCNC2=O [Example 52, 1^2-amino-4^5-morpholin-6-oxa-3,11-diaza-2(4,2)-pyrimidina-1(1,4),4(1,3)-dibenzenacyclododecaphan-12-one] | < 10 nM | 11 to 100 nM | 101 to 1000 nM | 101 to 1000 nM
O=C1Nc2ccc(cc2)OCc2cc(ccc2OC2CCCC2)Nc2nccc(n2)-c2ccc1cc2O [Example 215, 4^4-(cyclopentoxy)-1^2-hydroxy-6-oxa-3,8-diaza-2 (4,2)-pyrimidina-1,7(1,4),4(1,3)-tribenzenacyclononaphane-9-one] | 11 to 100 nM | 101 to 1000 nM | 1000 to 10000 nM | 1000 to 10000 nM
Nc1cc2ccc1-c1ccnc(n1)Nc1ccc(Oc3ccncc3)c(c1)COCCCCNC2=O [Example 143, 1^2-amino-4^4-(pyridin-4-oxy)-6-oxa-3,11-diaza-2(4,2)-pyrimidina-1(1,4),4(1,3)-dibenzenacyclododeca-phan-12-one] | 101 to 1000 nM | > 10000 nM | > 10000 nM | > 10000 nM
O=C1NCCCCOCc2cc(ccc2OCC2CC(F)(F)C2)Nc2nccc(n2)-c2ccc1cc2[N+](=O)[O-] [Example 126, 4^4-((3,3-Difluorocyclobutyl)methoxy)-1^2-nitro-6-oxa-3,11-diaza-2(4,2)-pyrimidina-1(1,4),4(1,3)-di-benzenacyclododecaphan-12-one] | 101 to 1000 nM | 1000 to 10000 nM | > 10000 nM | > 10000 nM
O=C1NCCCCOCc2cc(ccc2F)Nc2nccc(n2)-c2ccc1cc2[N+](=O)[O-] [Example 68, 4^4-fluoro-1^2-nitro-6-oxa-3,11-diaza-2(4,2)-pyrimidina-1(1,4),4(1,3)-di-benzenacyclododecaphan-12-one] | 101 to 1000 nM | 1000 to 10000 nM | > 10000 nM | 1000 to 10000 nM
Nc1cc2ccc1-c1ccnc(n1)Nc1ccc(OCc3cccc4c3COC4)c(c1)COCCCCNC2=O [Example 160, 1^2-amino-4^4-((1,3-dihydroisobenzo-furan-4-yl)methoxy)-6-oxa-3,11-diaza-2(4,2)-pyrimidina-1(1,4),4(1,3)-dibenzenacyclododecaphan-12-one] | 11 to 100 nM | 101 to 1000 nM | 1000 to 10000 nM | 1000 to 10000 nM
COc1ccc2cc1COCCCCNC(=O)c1ccc(c(C)c1)-c1nc(ncc1C)N2 [Example 33, 1^2,2^5-dimethyl-4^4-methoxy-6-oxa-3,11-diaza-2(4,2)-pyrimidina-1(1,4),4(1,3)-dibenzenacyclododecaphan-12-one] | 1000 to 10000 nM | 1000 to 10000 nM | > 10000 nM | 1000 to 10000 nM
COc1cccc(F)c1COc1ccc2cc1COCCC(C)CNC(=O)c1ccc(c(N)c1)-c1ccnc(n1)N2 (stereo not shown) [Example 182, 1^2-amino-4^4-((2-fluoro-6-methoxy-benzyl)oxy)-9-methyl-6-oxa-3,11-diaza-2(4,2)-pyrimidina-1(1,4),4(1,3)-dibenzenacyclododecaphan-12-one] | < 10 nM | 101 to 1000 nM | 1000 to 10000 nM | 1000 to 10000 nM
Nc1cc2ccc1-c1ccnc(n1)Nc1ccc(OCC3CCCC3)c(c1)COCCCCNC2=O [Example 105, 1^2-amino-4^4-(cyclopentylmethoxy)-6-oxa-3,11-diaza-2(4,2)-pyrimidi-na-1(1,4),4(1,3)-dibenzenacyclodo-decaphan-12-one] | < 10 nM | 101 to 1000 nM | > 10000 nM | 1000 to 10000 nM
O=C1NCCCCOCc2cc(ccc2OC2CCCC2)Nc2nccc(n2)-c2ccc1cc2[N+](=O)[O-] [Example 87, 4^4-cyclopentoxy-1^2-nitro-6-oxa-3,11-diaza-2(4,2)-pyrimidina-1(1,4),4(1,3)-dibenzenacyclododecaphan-12-one] | 101 to 1000 nM | > 10000 nM | > 10000 nM | > 10000 nM
